Experiments:
MDA-MB-231 cells [1] = assay: Cell proliferation, Casy cell counting, MDA-MB-231; type: cell-based, human; details: 0–100 nM, 48 h, hormone-deprived
Protocol: (§1) MDA-MB-231 and MCF-7 breast cancer cells were purchased from the American Type Culture Collection (ATCC; Manassas, VA, United States) and routinely cultivated at 37°C (95% humidity and 5% CO2) in phenolred-free Dulbecco’s modified Eagle medium F-12 (DMEM/F-12), fortified with 1% PenStrep®-solution and 10% fetal bovine serum (Invitrogen; Thermo Fisher Scientific, Inc., Waltham, MA, United States). All experiments were performed during the exponential growth phase of both cell lines. For the experiments, cells were seeded in 6-well-plates at a density of 1.0 × 10^6 cells per well and allowed to attach for 24 h.
(§2) Prior to cell counting with a Casy® TT Cell Counter (OLS OMNI Life Science, Bremen, Germany), the supernatant medium was removed and cells were detached using 400 μl TrypLe® solution (Invitrogen). All experiments were performed in triplicate, and the data were reported as the means ± standard deviation of all values.

MCF-7 cells [2] = assay: Cell proliferation, Casy cell counting, MCF-7; type: cell-based, human; details: 48 h; for cell number: 100 nM hormone precursor
Protocol: as §1, §2

MCF-7 cells [3] = details: for decrease of native hormone precursor: MCF-7, 100 nM, 48 h
Protocol: (§3) Briefly, cartridges were preconditioned with 2 × 1.0 ml acetonitrile and 3 × 1.0 ml ammonium acetate buffer (10 mM, pH = 5.0), and the samples were loaded onto the columns. After washing with 1 × 1.0 ml ammonium acetate buffer (10 mM, pH = 5.0) and 2 × 1.0 ml acetonitrile/ammonium acetate buffer (10 mM, pH 5.0) 10:90 (v/v), the analytes were eluted using 2 × 650 μl acetonitrile/ammonium acetate buffer (10 mM, pH = 5.0) 95:5 (v/v) and evaporated until dry. Subsequently, samples were reconstituted in 270 μl acetonitrile/ammonium acetate buffer (10 mM, pH = 5.0) 25:75 (v/v) and stored at -80°C until further LC–HRMS analysis.
(§4) After media collection, cell monolayers were washed five times with 2.0 ml DPBS, detached using 400 μl TrypLE® solution (37°C, 5 min), mixed with 600 μl DPBS and transferred into sample vials. Aliquots of these suspensions (100 μl each) were diluted and counted using the Casy® TT Cell Counter to determine the exact number of cells per sample well. The remaining cell suspensions (900 μl each) were gently centrifuged (1000 rpm, 8 min), and the supernatants were discarded. The cell pellets were subsequently resuspended in 100 μl aqueous ammonium acetate buffer (10 mM, pH = 5.0) and lysed by five freeze-thaw-cycles in liquid nitrogen (3 min each), followed by thawing at ambient temperature. Ammonium acetate buffer (1000 μl) was added, and the suspensions were centrifuged (14000 rpm, 5 min). Subsequently, the supernatants were concentrated using the same SPE protocol as described above. All processed samples were then stored at -80°C until further LC–HRMS analysis. For each condition, three biologically independent experiments were performed; the reported values represent the overall means ± SD of all values.
(§5) LC was performed with an UltiMate 3000 RSLC-series system coupled to a maXis HD ESI-Qq-TOF mass spectrometer (Bruker Corporation, Bremen, Germany). A Phenomenex Luna® 3 μm C18(2) 100 Å LC column (250 mm × 4.6 mm I.D.; Phenomenex, Inc., Torrance, CA, United States), preceded by a Hypersil® BDS-C18 guard column (5 μm, 10 mm × 4.6 mm I.D.; Thermo Fisher Scientific, Inc.) was used for the separation of the analytes at a flow rate of 1.0 ml/min and a temperature of 43°C. […] The ESI ion source settings were as follows: capillary voltage: -4.5 kV; dry gas flow rate: 8.0 l/min N2; nebulizer: 1.0 bar N2; and dry temperature: 200°C. The ion transfer parameters were set to 400 Vpp funnel RF and 300 Vpp multipole RF, the quadrupole ion energy was 8.0 eV, and the collision cell parameters were as follows: collision RF, 1100 Vpp; collision energy, 10.0 eV; transfer time, 38 μs; and pre-pulse storage, 18 μs. In the range of m/z 150–500, full-scan mass spectra were recorded.
(§6) The modes of inhibition were subsequently determined from Lineweaver–Burk plots, and the corresponding Ki values were calculated from Dixon plots using GraphPad Prism 6.0.

MDA-MB-231 cells [4] = details: for decrease of native hormone precursor: MDA-MB-231, 100 nM, 48 h
Protocol: as §3, §4, §5, §6

MDA-MB-231 cells [5] = assay: Metabolism of RES in MDA-MB-231 cells (HPLC); details: for maximum metabolite formation rate: 25 μM RES, 48 h
Protocol: (§7) After 48 h, the cellular media (100 μl) were mixed with 200 μl ice-cold (-20°C) methanol and subsequently centrifuged (14000 rpm, 5 min). The clear supernatants were then diluted 1:1 with aqueous ammonium acetate buffer (5 mM, pH = 7.4), and 80 μl of the samples were injected onto the HPLC column. […] Calibration of the chromatogram was accomplished using the external standard method.
as §6

MCF-7 cells [6] = assay: Metabolism of RES in MCF-7 cells (HPLC)
Protocol: as §7, §6

[7] = 0.5–5.0 g/day RES for up to 29 days, healthy subjects; ref Brown et al., 2010; cited from earlier work
[8] = MDA-MB-231, Michaelis–Menten model
[9] = MDA-MB-231, substrate inhibition model

Compound | effect of hormone precursor on cell growth (MDA-MB-231 cells [1]) | cell number (MCF-7 cells [2]) | decrease of native hormone precursor (MCF-7 cells [3]) [%] | decrease of native hormone precursor (MDA-MB-231 cells [4]) [%] | maximum metabolite formation rate (MDA-MB-231 cells [5]) [pmol/10^6 cells/h] | Vmax (MDA-MB-231 cells [5]; [8]) [pmol/10^6 cells/h] | Vmax (MDA-MB-231 cells [5]; [9]) [pmol/10^6 cells/h] | further results
C[C@]12CC[C@@H]3c4ccc(O)cc4CC[C@H]3[C@@H]1CCC2=O [E1, estrone] | did not further increase cell growth | 3.85 ± 0.36 × 10^6 cells | 12.9 | 12.3 |  |  |  | stimulation of proliferation (MCF-7 cells [2]; 100 nM): 59.8%
C[C@]12CC[C@H](O)CC1=CC[C@@H]1[C@@H]2CC[C@]2(C)C(=O)CC[C@@H]12 [DHEA, dehydroepiandrosterone] | did not further increase cell growth | 2.69 ± 0.24 × 10^6 cells | 54.9 | 26.8 |  |  |  | remaining precursor concentration in the medium (MCF-7 cells [3]; MCF-7, from 100.0 nM, after 48 h): 45.1 ± 1.8 nM; remaining precursor concentration in the medium (MDA-MB-231 cells [4]; MDA-MB-231, from 100 nM, after 48 h): 73.2 ± 2.5 nM
O=C(O)[C@H]1O[C@@H](Oc2cc(O)cc(/C=C/c3ccc(O)cc3)c2)[C@H](O)[C@@H](O)[C@@H]1O (relative stereo) [RES-3G, trans-resveratrol-3-O-(β-D-glucuronide)] |  |  |  |  | 23.9 ± 2.4 | 32.8 ± 8.6 | 43.4 ± 2.2 | Slope (n) (MCF-7 cells [6]; MCF-7, Hill model): 1.86 ± 0.18; Vmax (MCF-7 cells [6]; MCF-7, Hill model): 422.9 ± 38.9 pmol/10^6 cells/h
O=S(=O)(O)Oc1cc(O)cc(/C=C/c2ccc(O)cc2)c1 [RES-3S, trans-resveratrol-3-O-sulfate] |  |  |  |  | 2.28 ± 0.33 | 3.25 ± 0.44 | 4.31 ± 0.97 | fold increase of metabolite formation in MCF-7 compared with MDA-MB-231 (MCF-7 cells [6]): 150 fold; mean maximum formation rate (MCF-7 cells [6]; MCF-7, 48 h): 340.1 ± 49.4 pmol/10^6 cells/h; Vmax (MCF-7 cells [6]; MCF-7, Michaelis–Menten model): 468.4 ± 9.9 pmol/10^6 cells/h; Vmax (MCF-7 cells [6]; MCF-7, substrate inhibition model): 501.4 ± 17.1 pmol/10^6 cells/h; reduction in metabolite formation (MCF-7 cells [6]; RES up to 100 μM, substrate inhibition): 43.2%; levels of metabolite relative to RES [7]: approximately 10 fold

From paper PMC6048268, “Resveratrol Inhibits Key Steps of Steroid Metabolism in a Human Estrogen-Receptor Positive Breast Cancer Model: Impact on Cellular Proliferation” (Frontiers in Pharmacology, 2018)
